Assay results taken from patent US20040002425A1, “Triketone derivatives and herbicides” (Idemitsu Kosan Co., Ltd., priority 1998, published 2004).

Tested on: Transplanted paddy rice plant
Assay: Biological Test 1 (treatment on the 3rd day after transplantation): chemical injury to paddy rice
Format: in vivo
Design: scale not given here
Details: Treatment performed 3 days after transplantation
Description: (1) Preparation of Herbicide
Talc (57 parts by weight) and bentonite (40 parts by weight), both serving as carriers, and sodium alkylbenzenesulfate (3 parts by weight) serving as a surfactant were homogeneously ground and mixed to thereby obtain a carrier for water-dispersible powder.
Subsequently, to the water-dispersible powder (90 parts by weight), the triketone derivative (compound No. A-1) produced in Example I-1 (10 parts by weight) was added, and the resultant mixture was homogeneously ground and mixed to thereby obtain a herbicide.
(i) Biological Test 1 (Soaking in Water/Treatment on the 3rd Day After Transplantation)
A Wagner pot (1/2000 are) was filled with paddy soil, and seeds of barnyard grass were planted on the surface layer of the soil, and further, rice seedlings grown to the 2.5-leaf stage were transplanted.
Subsequently, water was poured in the pot to a height of 3 cm above the soil surface, and placed in a greenhouse where the temperature was maintained at 20-25° C., to thereby grow the plant under suitable conditions.
On the 3rd day after transplantation, the herbicide prepared in (1) above was applied to the plant in a predetermined amount. On the 30th day after treatment with the herbicide, weed-killing ratio, herbicidal effect, and extent of chemical injury to paddy rice were examined.
In Biological tests 1 and 2, herbicidal effect and extent of chemical injury were evaluated according to the below-described standards.
3) Chemical Injury to Paddy Rice
Chemical injury to paddy rice was evaluated according to the following criteria.

[1] = dose 100 g/ha, examined on the 30th day after treatment
[2] = dose 200 g/ha, examined on the 30th day after treatment

Row | SMILES | Chemical injury, Transplanted paddy rice plant [1] | Chemical injury, Transplanted paddy rice plant [2] | Chemical injury, Transplanted paddy rice plant (dose 100 g/ha) | Chemical injury, Transplanted paddy rice plant (dose 200 g/ha)
1 | Cc1cc(C(=O)C2=C(O)CCCC2=O)c(C)c2c1S(=O)(=O)CC2 [A-4, 4,7-dimethyl-5-(1,3-dioxocyclohexan-2-yl)carbonyl-2,3-dihydrobenzothiophene-1,1-dioxide] | 0 | 1 | – | –
2 | Cc1cc(C(=O)C2=C(Cl)CCCC2=O)c(Cl)c2c1S(=O)(=O)CC2 [B-4] | – | – | 1 | 2
3 | Cc1cccc(SC2=C(C(=O)c3ccc4c(c3Cl)CCS4(=O)=O)C(=O)CCC2)c1 [B-15, 4-chloro-5-[3-(3-methylphenyl)thio-1-oxocyclohexan-2-yl]carbonyl-2,3-dihydrobenzothiophene-1,1-dioxide] | – | – | 0 | 0
4 | CC1CC(=O)C(C(=O)c2ccc3c(c2Cl)CCS3(=O)=O)=C(Cl)C1 (stereo not shown) [B-25] | – | – | 0 | 1
5 | CC(C)c1ccccc1S(=O)(=O)C1=C(C(=O)c2ccc3c(c2Cl)CCS3(=O)=O)C(=O)CCC1 [B-36] | – | – | 0 | 0
6 | CC(C)(C)SC1=C(C(=O)c2ccc3c(c2Cl)CCS3(=O)=O)C(=O)CCC1 [B-23] | – | – | 0 | 0
7 | CO/N=C1\CCS(=O)(=O)c2ccc(C(=O)C3=C(SC)CCCC3=O)c(C)c21 [B-73] | – | – | 0 | 0
8 | Cc1cc(C(=O)C2=C(O)CC(C)(C)CC2=O)c(Cl)c2c1S(=O)(=O)CC2 [A-10, 4-chloro-7-methyl-5-(5,5-dimethyl-1,3-dioxocyclohexan-2-yl)carbonyl-2,3-dihydrobenzothiophene-1,1-dioxide] | 1 | 3 | – | –
9 | Cc1cc(C(=O)C2=C(S(C)(=O)=O)CCCC2=O)c(C)c2c1S(=O)(=O)CCC2OC(C)C (stereo not shown) [B-69] | – | – | 0 | 1
10 | C=CCS(=O)(=O)C1=C(C(=O)c2ccc3c(c2Cl)CCS3(=O)=O)C(=O)CCC1 [B-38, 4-chloro-5-[3-(3-propenyl)sulfonyl-1-oxocyclohexan-2-yl]carbonyl-2,3-dihydrobenzothiophene-1,1-dioxide] | – | – | 0 | 0
11 | Cc1cc(C(=O)C2=C(SCc3ccccc3)CCCC2=O)c(C)c2c1S(=O)(=O)CCC2OC(C)C (stereo not shown) [B-70] | – | – | 0 | 0
12 | CO/N=C1\CCS(=O)(=O)c2c(C)cc(C(=O)C3=C(N(C)C)CCCC3=O)c(C)c21 [B-55, 4-methoxyimino-5,8-dimethyl-6-(3-dimethylamino-1-oxocyclohexan-2-yl)carbonylthiochroman-1,1-1,1-dioxide] | – | – | 0 | 0
13 | O=C1CCCC(=O)C1C(=O)c1ccc2c(c1Br)CCS2(=O)=O [A-20, 4-bromo-5-(1,3-dioxocyclohexan-2-yl)carbonyl-2,3-dihydrobenzothiophene-1,1-dioxide] | 0 | 0 | – | –
14 | COC(=O)c1ccccc1S(=O)(=O)C1=C(C(=O)c2ccc3c(c2Cl)CCS3(=O)=O)C(=O)CCC1 [B-44] | – | – | 0 | 0
15 | CO/N=C1\CCS(=O)(=O)c2ccc(C(=O)C3=C(Sc4ccccc4)CCCC3=O)c(C)c21 [B-74, 4-methoxyimino-5-methyl-6-(3-phenylthio-1-oxocyclohexan-2-yl)carbonylthiochroman-1,1-dioxide] | – | – | 0 | 0
16 | CO/N=C1\CCS(=O)(=O)c2c(C)cc(C(=O)C3=C(N(C)OC)CCCC3=O)c(C)c21 [B-57, 4-methoxyimino-5,8-dimethyl-6-[3-(N-methoxymethyl)amino-1-oxocyclohexan-2-yl]carbonylthiochroman-1,1-1,1-dioxide] | – | – | 0 | 3
17 | Cc1cc(C(=O)C2=C(O)CCCC2=O)c(C)c2c1S(=O)(=O)C(C)C2 (stereo not shown) [Comparative Example I-4, reference compound] | 2 | 4 | – | –
18 | Cc1cc(C(=O)C2=C(Cl)CCCC2=O)c(C)c2c1S(=O)(=O)CCC2OC(C)C (stereo not shown) [B-66] | – | – | 0 | 4
19 | Cc1cc(C(=O)C2=C(Sc3ccccc3)CCCC2=O)c(Cl)c2c1S(=O)(=O)CC2 [B-5] | – | – | 0 | 0
20 | CCCS(=O)(=O)C1=C(C(=O)c2cc(C)c3c(c2C)/C(=N/OC)CCS3(=O)=O)C(=O)CCC1 [B-62, 4-methoxyimino-5,8-dimethyl-6-[3-(3-propyl)sulfonyl-1-oxocyclohexan-2-yl]carbonylthiochroman-1,1-1,1-dioxide] | – | – | 0 | 0
21 | CC1CC(C)(C)C(=O)C(C(=O)c2ccc3c(c2Cl)CCS3(=O)=O)=C1O (stereo not shown) [A-13, 4-chloro-5-(4,4,6-trimethyl-1,3-dioxocyclohexan-2-yl)carbonyl-2,3-dihydrobenzothiophene-1,1-dioxide] | 1 | 3 | – | –
22 | CCCSC1=C(C(=O)c2ccc3c(c2Cl)CCS3(=O)=O)C(=O)CCC1 [B-8, 4-chloro-5-[3-(3-propyl)thio-1-oxocyclohexan-2-yl]carbonyl-2,3-dihydrobenzothiophene-1,1-dioxide] | – | – | 0 | 0
23 | C=CCSC1=C(C(=O)c2ccc3c(c2Cl)CCS3(=O)=O)C(=O)CCC1 [B-22, 4-chloro-5-[3-(3-propenyl)thio-1-oxocyclohexan-2-yl]carbonyl-2,3-dihydrobenzothiophene-1,1-dioxide] | – | – | 0 | 0
24 | Cc1c(C(=O)C2=C(Cl)CCCC2=O)ccc2c1CCS2(=O)=O [B-47] | – | – | 0 | 0
25 | CSC1=C(C(=O)c2ccc3c(c2Cl)CCCS3(=O)=O)C(=O)CCC1 [B-79] | – | – | 0 | 0
26 | Cc1cc(C(=O)C2=C(O)CCCC2=O)c(Cl)c2c1S(=O)(=O)CC2 [A-3, 4-chloro-7-methyl-5-(1,3-dioxocyclohexan-2-yl) carbonyl-2,3-dihydrobenzothiophene-1,1-dioxide] | 1 | 3 | – | –
